Results: PubChem BioAssay AID1077 (Sanford-Burnham Center for Chemical Genomics, 2009)

Biological target: Tyrosine-protein phosphatase non-receptor type 7 (Homo sapiens) (UniProt P35236)
Assay: inhibition of recombinant HePTP activity – biochemical, fluorescence, secondary assay, dose response (AID 1077)
Settings: fluorogenic substrate

Tyrosine-protein phosphatase non-receptor type 7 (Homo sapiens), sequence (P35236 whole entry, looked up): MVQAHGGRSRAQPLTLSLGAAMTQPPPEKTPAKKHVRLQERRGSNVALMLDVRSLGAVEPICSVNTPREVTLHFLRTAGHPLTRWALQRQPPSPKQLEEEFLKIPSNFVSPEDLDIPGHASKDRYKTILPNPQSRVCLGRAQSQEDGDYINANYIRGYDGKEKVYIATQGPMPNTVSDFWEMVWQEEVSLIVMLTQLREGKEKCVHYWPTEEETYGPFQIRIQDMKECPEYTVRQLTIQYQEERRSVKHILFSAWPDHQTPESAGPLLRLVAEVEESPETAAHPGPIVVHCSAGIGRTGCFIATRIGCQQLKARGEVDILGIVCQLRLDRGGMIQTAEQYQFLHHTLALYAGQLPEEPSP

- IC50: 15 µM
SMILES: CCOc1ccc2nc(NC(=O)CSC3=Nc4sc(C)c(C)c4C(=O)C3)sc2c1
